What was measured:
Serine protease 1 [1] = biological target: T1, Serine protease 1 (Homo sapiens, UniProt P07477)
Serine protease 1 [2] = biological target: T1, Serine protease 1; assay: Rate constant of deacylation for trypsin; Fast and could not be measured
Chymotrypsinogen A = Chymotrypsinogen A (Bos taurus, UniProt P00766); assay: Rate constant of deacylation for alpha-chymotrypsin; Fast and could not be measured
[3] = biological target: T2, Urokinase-type plasminogen activator (Homo sapiens, UniProt P00749)
[4] = biological target: Chymotrypsinogen A (Bos taurus) (UniProt P00766)
[5] = biological target: Chymotrypsinogen A (Bos taurus) (UniProt P00766); remark: listed apart in the source
[6] = biological target: T2, Urokinase-type plasminogen activator; remark: listed apart in the source
Description: Specificity constant on Urokinase-type plasminogen activator was determined at 0 percent and at 86 minutes for maximum inhibition and no enzyme activity was recovered over the 2 h-time

[7] = biological target: T2, Urokinase-type plasminogen activator; remark: listed apart in the source
Serine protease 1 [8] = biological target: T1, Serine protease 1; remark: listed apart in the source
Serine protease 1 [9] = biological target: T1, Serine protease 1; remark: listed apart in the source
Description: Specificity constant on trypsin was determined at 0 percent and at 95 minutes for maximum inhibition and no enzyme activity was recovered over the 2 h-time

[10] = biological target: Chymotrypsinogen A (Bos taurus) (UniProt P00766); remark: listed apart in the source
[11] = biological target: T3, Chymotrypsin-like elastase family member 2A (Sus scrofa) (UniProt P08419); assay: Binding constant on porcine pancreatic elastase was determined at 30 percent and at 99 minutes for maximum inhibition and no enzyme activity was recovered over the 2 h-time
T3 sequence (whole entry): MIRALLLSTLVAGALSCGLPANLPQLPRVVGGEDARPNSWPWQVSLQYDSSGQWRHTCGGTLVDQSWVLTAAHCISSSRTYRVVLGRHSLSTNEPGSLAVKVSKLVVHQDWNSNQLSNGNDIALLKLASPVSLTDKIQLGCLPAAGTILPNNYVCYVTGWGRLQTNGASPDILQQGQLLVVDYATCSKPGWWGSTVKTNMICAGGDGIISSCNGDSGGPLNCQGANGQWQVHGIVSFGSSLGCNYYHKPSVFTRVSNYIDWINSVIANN

[12] = biological target: T4, Neutrophil elastase (Homo sapiens) (UniProt P08246); assay: Specificity constant on human neutrophil elastase was determined at 30 percent and at 80 minutes for maximum inhibition and no enzyme activity was recovered over the 2 h-time
T4 sequence (whole entry): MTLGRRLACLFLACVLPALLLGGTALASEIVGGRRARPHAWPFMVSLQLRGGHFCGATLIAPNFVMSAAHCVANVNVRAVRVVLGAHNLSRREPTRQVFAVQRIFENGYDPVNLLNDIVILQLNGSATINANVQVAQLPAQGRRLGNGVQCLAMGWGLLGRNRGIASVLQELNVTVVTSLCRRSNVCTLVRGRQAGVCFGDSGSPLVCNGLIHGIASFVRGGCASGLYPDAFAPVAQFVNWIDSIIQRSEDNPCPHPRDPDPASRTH

Serine protease 1 [13] = biological target: T1, Serine protease 1; assay: Specificity constant on trypsin was determined at 10 percent and at 83 minutes for maximum inhibition and no enzyme activity was recovered over the 2 h-time
[14] = biological target: Chymotrypsinogen A (Bos taurus) (UniProt P00766); assay: Specificity constant on alpha-chymotrypsin was determined at 10 percent and at 98 minutes for maximum inhibition and no enzyme activity was recovered over the 2 h-time
[15] = biological target: Chymotrypsinogen A (Bos taurus) (UniProt P00766); assay: Binding constant on alpha-chymotrypsin was determined at 10 percent and at 98 minutes for maximum inhibition and no enzyme activity was recovered over the 2 h-time
[16] = biological target: T3, Chymotrypsin-like elastase family member 2A (Sus scrofa); assay: Specificity constant on porcine pancreatic elastase was determined at 30 percent and at 99 minutes for maximum inhibition and no enzyme activity was recovered over the 2 h-time
Serine protease 1 [17] = biological target: T1, Serine protease 1; assay: Rate constant of acylation on trypsin was determined at 10 percent and at 83 minutes for maximum inhibition and no enzyme activity was recovered over the 2 h-time
[18] = biological target: T3, Chymotrypsin-like elastase family member 2A (Sus scrofa); assay: Rate constant of acylation on porcine pancreatic elastase was determined at 30 percent and at 99 minutes for maximum inhibition and no enzyme activity was recovered over the 2 h-time
[19] = biological target: Chymotrypsinogen A (Bos taurus) (UniProt P00766); assay: Rate constant of acylation on alpha-chymotrypsin was determined at 10 percent and at 98 minutes for maximum inhibition and no enzyme activity was recovered over the 2 h-time
Serine protease 1 [20] = biological target: T1, Serine protease 1; assay: Binding constant on trypsin was determined at 10 percent and at 83 minutes for maximum inhibition and no enzyme activity was recovered over the 2 h-time
[21] = biological target: T4, Neutrophil elastase (Homo sapiens); assay: Binding constant on human neutrophil elastase was determined at 30 percent and at 80 minutes for maximum inhibition and no enzyme activity was recovered over the 2 h-time
[22] = biological target: T4, Neutrophil elastase (Homo sapiens); assay: Rate constant of acylation on human neutrophil elastase was determined at 30 percent and at 80 minutes for maximum inhibition and no enzyme activity was recovered over the 2 h-time
[23] = biological target: T2, Urokinase-type plasminogen activator; assay: Specificity constant on Urokinase-type plasminogen activator was determined at 0 percent and at 97 minutes for maximum inhibition and no enzyme activity was recovered over the 2 h-time
Serine protease 1 [24] = biological target: T1, Serine protease 1; assay: Rate constant of acylation on trypsin was determined at 0 percent and at 97 minutes for maximum inhibition with 45 minutes persistence of inhibition
Serine protease 1 [25] = biological target: T1, Serine protease 1; assay: Specificity constant on trypsin was determined at 0 percent and at 97 minutes for maximum inhibition with 45 minutes persistence of inhibition
[26] = biological target: T2, Urokinase-type plasminogen activator; assay: Rate constant of acylation on Urokinase-type plasminogen activator […] was determined at 0 percent and at 97 minutes for maximum inhibition and no enzyme activity was recovered over the 2 h-time
[27] = biological target: T2, Urokinase-type plasminogen activator; assay: Rate constant of deacylation for Urokinase-type plasminogen activator; NM - Fast and could not be measured
[28] = biological target: T2, Urokinase-type plasminogen activator; assay: Binding constant on Urokinase-type plasminogen activator was determined at 0 percent and at 97 minutes for maximum inhibition and no enzyme activity was recovered over the 2 h-time
Serine protease 1 [29] = biological target: T1, Serine protease 1; assay: Binding constant on trypsin was determined at 0 percent and at 97 minutes for maximum inhibition with 45 minutes persistence of inhibition
[30] = biological target: Chymotrypsinogen A (Bos taurus) (UniProt P00766); assay: Binding constant on alpha-chymotrypsin was determined at 45 percent and at 96 minutes for maximum inhibition and no enzyme activity was recovered over the 2 h-time
[31] = biological target: T2, Urokinase-type plasminogen activator; assay: Rate constant of deacylation for Urokinase-type plasminogen activator
Serine protease 1 [32] = biological target: T1, Serine protease 1; assay: Rate constant of deacylation for trypsin
[33] = biological target: T4, Neutrophil elastase (Homo sapiens); assay: Specificity constant on human neutrophil elastase was determined at 20 percent and at 95 minutes for maximum inhibition and no enzyme activity was recovered over the 2 h-time
[34] = biological target: T4, Neutrophil elastase (Homo sapiens); assay: Binding constant on human neutrophil elastase was determined at 20 percent and at 95 minutes for maximum inhibition and no enzyme activity was recovered over the 2 h-time
[35] = biological target: T4, Neutrophil elastase (Homo sapiens); assay: Rate constant of acylation on human neutrophil elastase was determined at 20 percent and at 95 minutes for maximum inhibition and no enzyme activity was recovered over the 2 h-time
[36] = biological target: T3, Chymotrypsin-like elastase family member 2A (Sus scrofa); assay: Binding constant on porcine pancreatic elastase was determined at 15 percent and at 35 minutes for maximum inhibition with 0 minutes persistence of inhibition
[37] = biological target: T3, Chymotrypsin-like elastase family member 2A (Sus scrofa); assay: Specificity constant on porcine pancreatic elastase was determined at 15 percent and at 35 minutes for maximum inhibition with 0 minutes persistence of inhibition
[38] = biological target: T3, Chymotrypsin-like elastase family member 2A (Sus scrofa); assay: Rate constant of acylation on porcine pancreatic elastase was determined at 15 percent and at 35 minutes for maximum inhibition with 0 minutes persistence of inhibition

T1 sequence (P07477 whole entry): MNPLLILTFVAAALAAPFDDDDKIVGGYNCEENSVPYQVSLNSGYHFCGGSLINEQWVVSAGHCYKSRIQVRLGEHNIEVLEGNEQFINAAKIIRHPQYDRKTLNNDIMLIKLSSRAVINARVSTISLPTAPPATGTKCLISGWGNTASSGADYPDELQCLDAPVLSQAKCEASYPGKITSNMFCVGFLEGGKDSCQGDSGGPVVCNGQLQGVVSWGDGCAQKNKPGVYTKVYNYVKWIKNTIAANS

## C=C1C[C@H](c2ccc(NC(=N)N)cc2)[C@@H](NC(=O)c2ccccc2)C(=C)O1
Serine protease 1 [1]
  Ks/i: 10 µM
Serine protease 1 [2]
  Kd: 2.5e-05 s⁻¹
Chymotrypsinogen A
  Kd: Not measurable
[3]
  ka: 4.83 min⁻¹
[4]
  Ks/i: 0.46 µM
[5]
  ka: 9.51 min⁻¹
[6]
  ka/Ki: 13300 M⁻¹ s⁻¹
[7]
  Ks/i: 6 µM
Serine protease 1 [8]
  ka: 10.2 min⁻¹
Serine protease 1 [9]
  ka/Ki: 17000 M⁻¹ s⁻¹
[10]
  ka/Ki: 350000 M⁻¹ s⁻¹

## C=C1CCC(C(C)C)C(=O)O1 (stereo not given)
[11]
  Ks/i: 88 µM
[12]
  ka/Ki: 34700 M⁻¹ s⁻¹
Serine protease 1 [13]
  ka/Ki: 333 M⁻¹ s⁻¹
[14]
  ka/Ki: 667 M⁻¹ s⁻¹
[15]
  Ks/i: 89 µM
[16]
  ka/Ki: 83.3 M⁻¹ s⁻¹
Serine protease 1 [17]
  ka: 0.45 min⁻¹
[18]
  ka: 0.42 min⁻¹
[19]
  ka: 3.2 min⁻¹
Serine protease 1 [20]
  Ks/i: 24 µM
[21]
  Ks/i: 6.25 µM
[22]
  ka: 13 min⁻¹

## C=C1CCC(c2ccc(NC(=N)N)cc2)C(=O)O1 (stereo not given)
[23]
  ka/Ki: 1.98e+07 M⁻¹ s⁻¹
Serine protease 1 [24]
  ka: 14.3 min⁻¹
Serine protease 1 [2]
  Kd: Not measurable
Serine protease 1 [25]
  ka/Ki: 1.03e+06 M⁻¹ s⁻¹
[26]
  ka: 391 min⁻¹
[27]
  Kd: Not measurable
[28]
  Ks/i: 0.33 µM
Serine protease 1 [29]
  Ks/i: 0.23 µM

## N=C(N)Nc1ccc([C@H]2C/C(=C\I)OC(=O)[C@@H]2NC(=O)c2ccccc2)cc1
[30]
  Ks/i: 0.17 µM
[31]
  Kd: 1.3e-05 s⁻¹
Serine protease 1 [32]
  Kd: 8.3e-05 s⁻¹

## C/C(Br)=C1/CCC(C(C)C)C(=O)O1 (stereo not given)
[33]
  ka/Ki: 4500 M⁻¹ s⁻¹
[34]
  Ks/i: 3 µM
[35]
  ka: 0.81 min⁻¹
[36]
  Ks/i: 48.7 µM
[37]
  ka/Ki: 333 M⁻¹ s⁻¹
[38]
  ka: 1.12 min⁻¹

— ChEMBL document CHEMBL1126229, “Enol lactone derivatives as inhibitors of human neutrophil elastase and trypsin-like proteases” (Bioorg Med Chem Lett, 1992)
